Reference: patent publication US10118902B2 (Sanford Burnham Prebys Medical Discovery Institute, priority 2014, dated 2018)

Biological target: neurotensin receptor 1 (NTR1) (Homo sapiens (Human), UniProt P30989)
Test: NTR1 dose response, high-content imaging beta-arrestin-GFP assay in NTR1-U2OS cells
Format: cell-based
Conditions: read-out: EC50

Chain of neurotensin receptor 1 (NTR1) (P30989 whole entry, species assumed): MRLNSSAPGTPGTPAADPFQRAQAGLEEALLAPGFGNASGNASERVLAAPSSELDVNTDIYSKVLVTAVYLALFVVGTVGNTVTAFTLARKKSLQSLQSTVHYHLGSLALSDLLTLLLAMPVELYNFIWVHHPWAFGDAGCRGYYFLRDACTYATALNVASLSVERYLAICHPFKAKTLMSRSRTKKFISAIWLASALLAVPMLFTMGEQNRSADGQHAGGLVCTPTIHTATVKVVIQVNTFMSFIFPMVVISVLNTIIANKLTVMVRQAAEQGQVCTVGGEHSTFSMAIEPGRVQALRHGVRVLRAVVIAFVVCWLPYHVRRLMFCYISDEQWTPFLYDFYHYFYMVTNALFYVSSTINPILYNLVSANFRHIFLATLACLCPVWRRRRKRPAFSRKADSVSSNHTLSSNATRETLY

Structure (SMILES)	EC50 [nM]
COc1ccccc1C1CCN(c2nc(C3(F)CC3)nc3c(Cl)cc(N(C)CCO)cc23)CC1 [Example 201, 2-({8-Chloro-2-(1-fluoro-cyclopropyl)-4-[4-(2-methoxy-phenyl)-piperidin-1-yl]-quinazolin-6-yl}-methyl-amino)-ethanol]	< 500
COc1nccnc1C1CCN(c2nc(C3(C)CC3)nc3c(F)cc(N(C)CCO)cc23)CC1 [Example 204, 2-{[8-Fluoro-4-[4-(3-methoxy-pyrazin-2-yl)-piperidin-1-yl]-2-(1-methyl-cyclopropyl)-quinazolin-6-yl]-methyl-amino}-ethanol]	500 to 2000
COc1nccnc1C1CCN(c2nc(C3(C)CC3)nc3ccc(N(C)CCO)cc23)CC1 [Example 205, 2-{[4-[4-(3-Methoxy-pyrazin-2-yl)-piperidin-1-yl]-2-(1-methyl-cyclopropyl)-quinazolin-6-yl]-methyl-amino}-ethanol]	500 to 2000
COc1nccnc1C1CCN(c2nc(C3(F)CC3)nc3c(F)cc(N(C)CCO)cc23)CC1 [Example 213, 2-({8-Fluoro-2-(1-fluoro-cyclopropyl)-4-[4-(3-methoxy-pyrazin-2-yl)-piperidin-1-yl]-quinazolin-6-yl}-methyl-amino)-ethanol]	500 to 2000
COc1ncccc1C1CCN(c2nc(C3(F)CC3)nc3c(F)cc(N(C)CCO)cc23)CC1 [Example 214, 2-{[8-Fluoro-2-(1-fluoro-cyclopropyl)-4-(2-methoxy-3′,4′,5′,6′-tetrahydro-2′H-[3,4′]bipyridinyl-1′-yl)-quinazolin-6-yl]-methyl-amino}-ethanol]	500 to 2000
COc1cccnc1C1CCN(c2nc(C3(F)CC3)nc3c(F)cc(N(C)CCO)cc23)CC1 [Example 216, 2-{[8-Fluoro-2-(1-fluoro-cyclopropyl)-4-(3-methoxy-3′,4′,5′,6′-tetrahydro-2′H-[2,4′]bipyridinyl-1′-yl)-quinazolin-6-yl]-methyl-amino}-ethanol]	2000 to 10000
COc1cncnc1C1CCN(c2nc(C3(F)CC3)nc3c(F)cc(N(C)CCO)cc23)CC1 [Example 217, 2-({8-Fluoro-2-(1-fluoro-cyclopropyl)-4-[4-(5-methoxy-pyrimidin-4-yl)-piperidin-1-yl]-quinazolin-6-yl}-methyl-amino)-ethanol]	> 10000
COc1nccnc1C1CCN(c2nc(C3(CF)CC3)nc3ccc(N(C)CCO)cc23)CC1 [Example 219, 2-({2-(1-Fluoromethyl-cyclopropyl)-4-[4-(3-methoxy-pyrazin-2-yl)-piperidin-1-yl]-quinazolin-6-yl}-methyl-amino)-ethanol]	500 to 2000
COc1nccnc1C1CCN(c2nc(C3(O)CCC3)nc3ccc(N(C)CCO)cc23)CC1 [Example 221, 1-(6-((2-hydroxyethyl)(methyl)amino)-4-(4-(3-methoxypyrazin-2-yl)piperidin-1-yl)quinazolin-2-yl)cyclobutanol]	> 10000
CN(CCOCCF)c1ccc2nc(C3(F)CC3)nc(N3CCC(c4ccccc4OCCF)CC3)c2c1 [Example 222, (2-(1-Fluoro-cyclopropyl)-4-{4-[2-(2-fluoro-ethoxy)-phenyl]-piperidin-1-yl}-quinazolin-6-yl)-[2-(2-fluoro-ethoxy)-ethyl]-methyl-amine]	2000 to 10000
COc1ccccc1C1CCN(c2nc(C3(F)CC3)nc3ccc(N(C)CCOCCF)cc23)CC1 [Example 223, {2-(1-Fluoro-cyclopropyl)-4-[4-(2-methoxy-phenyl)-piperidin-1-yl]-quinazolin-6-yl}-[2-(2-fluoro-ethoxy)-ethyl]-methyl-amine]	500 to 2000
CN(CCO[Si](C)(C)C(C)(C)C)c1ccc2nc(C3(F)CC3)nc(N3CCC(c4ccccc4O)CC3)c2c1 [Example 224, 2-{1-[6-{[2-(tert-Butyl-dimethyl-silanyloxy)-ethyl]-methyl-amino}-2-(1-fluoro-cyclopropyl)-quinazolin-4-yl]-piperidin-4-yl}-phenol]	2000 to 10000
CN(CCO)c1ccc2nc(C3(F)CC3)nc(N3CCC(c4ccccc4OCCF)CC3)c2c1 [Example 225, 2-[(2-(1-Fluoro-cyclopropyl)-4-{4-[2-(2-fluoro-ethoxy)-phenyl]-piperidin-1-yl}-quinazolin-6-yl)-methyl-amino]-ethanol]	500 to 2000

Second part, the molecule after the results:

EC50 [nM]	Structure (SMILES)
500 to 2000	COc1cccnc1C1CCN(c2nc(C3(F)CC3)nc3ccc(N(C)CCO)cc23)CC1 [Example 206, 2-{[2-(1-Fluoro-cyclopropyl)-4-(3-methoxy-3′,4′,5′,6′-tetrahydro-2′H-[2,4′]bipyridinyl-1′-yl)-quinazolin-6-yl]-methyl-amino}-ethanol]
500 to 2000	COc1ncccc1C1CCN(c2nc(C3(F)CC3)nc3ccc(N(C)CCO)cc23)CC1 [Example 207, 2-{[2-(1-Fluoro-cyclopropyl)-4-(2-methoxy-3′,4′,5′,6′-tetrahydro-2′H-[3,4′]bipyridinyl-1′-yl)-quinazolin-6-yl]-methyl-amino}-ethanol]
500 to 2000	COc1nccnc1C1CCN(c2nc(C3(F)CC3)nc3ccc(N(C)CCO)cc23)CC1 [Example 208, 2-({2-(1-Fluoro-cyclopropyl)-4-[4-(3-methoxy-pyrazin-2-yl)-piperidin-1-yl]-quinazolin-6-yl}-methyl-amino)-ethanol]
2000 to 10000	COc1cccnc1N1CCN(c2nc(C3(F)CC3)nc3ccc(N(C)CCO)cc23)CC1 [Example 209, 2-({2-(1-Fluoro-cyclopropyl)-4-[4-(3-methoxy-pyridin-2-yl)-piperazin-1-yl]-quinazolin-6-yl}-methyl-amino)-ethanol]
2000 to 10000	COc1ccncc1C1CCN(c2nc(C3(F)CC3)nc3ccc(N(C)CCO)cc23)CC1 [Example 210, 2-{[2-(1-Fluoro-cyclopropyl)-4-(4-methoxy-3′,4′,5′,6′-tetrahydro-2′H-[3,4′]bipyridinyl-1′-yl)-quinazolin-6-yl]-methyl-amino}-ethanol]
> 10000	COc1cncnc1C1CCN(c2nc(C3(F)CC3)nc3ccc(N(C)CCO)cc23)CC1 [Example 211, 2-({2-(1-Fluoro-cyclopropyl)-4-[4-(5-methoxy-pyrimidin-4-yl)-piperidin-1-yl]-quinazolin-6-yl}-methyl-amino)-ethanol]
> 10000	COc1cnccc1C1CCN(c2nc(C3(F)CC3)nc3ccc(N(C)CCO)cc23)CC1 [Example 212, 2-{[2-(1-Fluoro-cyclopropyl)-4-(3′-methoxy-3,4,5,6-tetrahydro-2H-[4,4′]bipyridinyl-1-yl)-quinazolin-6-yl]-methyl-amino}-ethanol]
500 to 2000	COc1cccnc1N1CCN(c2nc(C3(F)CC3)nc3c(F)cc(N(C)CCO)cc23)CC1 [Example 215, 2-({8-Fluoro-2-(1-fluoro-cyclopropyl)-4-[4-(3-methoxy-pyridin-2-yl)-piperazin-1-yl]-quinazolin-6-yl}-methyl-amino)-ethanol]
> 10000	COc1cc(I)ccc1C1CCN(c2nc(C3(F)CC3)nc3ccc(N(C)CCO)cc23)CC1 [Example 218]
